Laboratory results taken from patent US20180312880A1, “NATURAL BROAD-SPECTRUM BIOCIDES” (CONSEJO SUPERIOR DE INVESTIGACIONES CIENTÍFICAS, priority 2015, published 2018).
In brackets after ≈: the same amount, converted by molar mass. Marks after values point to notes of the source that are not given here.

Tests used:
Lactuca sativa = experiment: Phytotoxicity test on seeds (germination, root growth); settings: for Germination (% C) 72 h / Growth (% C) Root: Lactuca sativa; for Germination (% C) 72 h / Growth (% C) Root / phytotoxic effects on germination and root development: in vivo; for Growth (% C) Root: 6 days
Experimental: […] 500 μl of distilled water and 10/5 seeds, were added to each well, and the plates were incubated in a growth chamber at 25° C., 70% relative humidity and a 16:08 L:D photoperiod. Seeds' germination was recorded for six days and the elongation of roots was assessed at the end of the experiment. The data were analysed by variance analysis (ANOVA).

M. persicae = experiment: Aphid settlement inhibition on leaf disks (% SI); assay type: in vivo, Myzus persicae; settings: for M. persicae % SI: compounds at 50 μg/cm^2, 24 h; for EC50 (M. persicae): dose-response, settlement inhibition, limits in brackets
Experimental: (§1) Breeding and maintenance of the insects was carried out in a temperature-controlled chamber at 24±1° C., 60-70% relative humidity and a photoperiod of 16:8 hours (light:darkness). Larvae of S. littoralis were maintained on a semisynthetic diet (Poitut and Bues. 1970. Ann. Zool. Ecol. Anim. 2, 79-91) and aphids M. persicae and Rhopalosiphum padi on their host plants, pepper—Capsicum annuum L.—and barley—Hordeum vulgare L.—respectively. Tests on anti-feeding activity were carried out with newly hatched larvae of the sixth stage of S. littoralis and wingless adult aphids. The upper surface of leaf disks (1.0 cm^2) of the pepper (Capsicum annuum L.) were treated with 10 μl of a solution (10 mg/ml for extracts and 5 mg/ml for pure products). Each test consisted of 5 Petri dishes with two (S. littoralis) larvae per dish or twenty boxes (2×2 cm) with ten M. persicae or R. padi aphids incubated in a growth chamber under the same conditions described for the breeding of the insects. Once consumed 75% of the surface of the control dishes (S. littoralis) or after 24 h (M. persicae or R. padi) the consumption (% FI) or settlement index (% SI), was calculated respectively. % FI=[1−(T/C)×100], where T and C are the consumption of treated leaves discs and control; % SI=[1−(% T/C %)] where % C and % T are the percentage of aphids settled on the discs of control and treated leaves (Burgueño et al. 2008. J. Chem. Ecol. 34, 766-771). Compounds with an FI/SI>70% were tested in a dose-response experiment to calculate its relative potency (EC50, being the effective dose for a reduction of 50% of feeding).

M. javanica = experiment: Nematicidal activity on infective juveniles (J2); assay type: in vivo, Meloidogyne javanica; settings: J2, 72 h
Experimental: The nematode population (M. javanica) was maintained in growth chambers on tomato plants—Lycopersicon esculentum (var Marmande)—at 25° C. and a relative humidity of 70%. The tests were carried out according to the methodology described for M. javanica (Andres et al. 2012. Phytochem. Rev. 11, 371-390) using the biological stage of infective juveniles (J2). […] Each treatment was repeated four times and nematicidal activity was determined from the percentage of infective juveniles dead after 72 h. In cases in which a mortality rate of >99% was determined, dose-response experiments were carried out to determine LC50 and LC90.

Botrytis cinerea = experiment: Antifungal activity, agar dilution, mycelial growth inhibition; assay type: cell-based; settings: for inhibition at 500 µg/mL: 0.5 mg/ml, 48 h
Experimental: (§2) Phytopathogenic fungi Fusarium moniliforme (Sheldon) [CECT 2152] F. oxysporum fs. lycopersici ([…] 2715] and F. solani (Mart) [CECT 2199] come from the Spanish Type Culture Collection (CECT). The strain Botrytis cinerea Pers.:Fr. (B05.10) is a donation from the Biochemistry Department at the University of La Laguna (ULL). For their maintenance the strains were grown on solid commercial medium PDA at 25° C. […] To determine the antifungal activity, the agar dilution method was used (Murabayashi et al. 1991. J. Pesticide Sci. 16, 419-427). […] In parallel, controls were prepared with ethanol at a concentration of 2%. […] Colonies grown in petri dishes and incubated for 48 h were digitized and measured using the ImageJ 1.43 software. The percentage of inhibition (% I) was calculated as: % I=(C-T/C)×100, where C is the diameter of control colonies and T of the colonies of the tested samples. The growth inhibition effective dose (EC50) was determined by linear regression analysis (% of inhibition of dose log).

S. littoralis = experiment: Anti-feeding activity on leaf disks (% FI); assay type: in vivo, Spodoptera littoralis; settings: compounds at 50 μg/cm^2
Experimental: as §1, with “Each test consisted of 5 Petri dishes with two (S. littoralis) larvae per dish or twenty boxes (2×2 cm) with ten M. persicae or R. padi aphids incubated in a growth chamber under the same conditions described for the breeding of the insects.” left out, “Compounds with an FI/SI>70% were tested in a dose-response experiment to calculate its relative potency (EC50, being the effective dose for a reduction of 50% of feeding).” left out

F. moniliforme = experiment: Antifungal activity, agar dilution, mycelial growth inhibition; assay type: cell-based, Fusarium moniliforme; settings: Fusarium verticillioides; tested at 0.1 mg/ml (footnote a); 48 h
Experimental: as §2

R. padi = experiment: Aphid settlement inhibition on leaf disks (% SI); assay type: in vivo, Rhopalosiphum padi; settings: compounds at 50 μg/cm^2; 24 h
Experimental: as §1, with “Each test consisted of 5 Petri dishes with two (S. littoralis) larvae per dish or twenty boxes (2×2 cm) with ten M. persicae or R. padi aphids incubated in a growth chamber under the same conditions described for the breeding of the insects.” left out, “Compounds with an FI/SI>70% were tested in a dose-response experiment to calculate its relative potency (EC50, being the effective dose for a reduction of 50% of feeding).” left out

F. solani = experiment: Antifungal activity, agar dilution, mycelial growth inhibition; assay type: cell-based; settings: Fusarium solani
Experimental: as §2

Row | Structure (SMILES) | Germination (% C) 72 h (Lactuca sativa; 5 μg/μl) | Growth (% C) Root (Lactuca sativa; 5 μg/μl) [% C] | phytotoxic effects on germination and root development (Lactuca sativa) | M. persicae % SI (M. persicae) [%] | EC50 (M. persicae) (M. persicae) | M. javanica % paralysed (M. javanica; 0.25 mg/ml) [%] | M. javanica % paralysed (M. javanica; 0.5 mg/ml) [%] | inhibition at 500 µg/mL (Botrytis cinerea) [%] | EC50 (Botrytis cinerea; growth inhibition, linear regression, read-out: EC50 (95% CL) Botrytis cinerea) [µg/mL] | S. littoralis % FI (S. littoralis) [%] | inhibition at 100 µg/mL (F. moniliforme) [%] | R. padi % SI (R. padi) [%] | EC50 (F. solani; growth inhibition, linear regression, read-out: EC50 (95% CL) F. solani) [µg/mL] | inhibition at 100 µg/mL (F. solani; tested at 0.1 mg/ml (footnote a), 48 h) [%] | germination (Lactuca sativa; positive control of germination inhibition, 5 μg/μl)
1 | CCCCCC1=CC(=O)[C@](O)(CCCC)[C@H](O)C1 (stereo in doubt) [Stempholone A, 6-butyl-5,6-dihydroxy-3-pentylcyclohex-2-en-1-one] | 97.50 ± 3.54^ % C | 230.26 ± 21.33 | absence of phytotoxic effects | 81.42 ± 5.61 | 0.15 (0.06-0.36)* μg/cm^2 | 2.8 ± 0.5 | 83.05 ± 3.15 | 56.2 ± 1.5 | 430 (≈ 1690 µM) | 41.8 ± 7.9 |  |  |  |  | 
2 | CCCC[C@@]1(O)C(=O)C=C(CCCC(C)O)C[C@H]1O (stereo in doubt) [Stempholone B, 6-butyl-5,6-dihydroxy-3-(4-hydroxypentyl)cyclohex-2-en-1-one] | 100 ± 0.00 % C | 109.26 ± 9.57 | absence of phytotoxic effects | 83.87 ± 6.89 | 0.02 (0.003-0.15)* μg/cm^2 |  | 1.24 ± 0.9 | 11.9 ± 3.67 |  | 52.9 ± 5.9 | 4.2 | 45.13 ± 9.09 | 210 (≈ 777 µM) | 49.9 | 
3 | O=C1C=CC(=O)c2c(O)cccc21 [juglone, reference compound] |  |  |  |  |  |  |  |  |  |  |  |  |  |  | lower than 5%
